Assay results as given in patent publication US20250339409A1, “USES OF PAN BET INHIBITORS” (VYNE THERAPEUTICS INC., priority 2021, published 2025).

Tested on: imiquimod-induced psoriasis
Assay: Imiquimod-induced psoriasis (Th17 inflammation) model in mice, topical treatment once daily D7-D13: PASI, modified PASI, body weight, use of enrichment, TEWL
Type: in vivo
Parameters: key to Mean score use enrichment: 0 = no use of dental rolls to 4 = use of all 4; key to PASI Mean score values: sum of erythema, induration, peeling scores, each 0-3 (0 = none)
Conditions: imiquimod-induced mice
Protocol: Thirty-six (36) female Balb/c mice are weighed and randomly divided into 9 groups (n=4) according to body weight on D1. For mice of native group 1 and tolerance groups 8 and 9, no induction of psoriasis is performed between D1 and D13. Psoriasis is induced in groups 2 to 7 by once daily topical application for 13 days (from day 1 to day 13) of 65 mg of Aldara™ cream (5.0% imiquimod) onto the shaved and epilated back of mice. Before the first treatment, a second randomization of mice of the 6 imiquimod-induced psoriasis groups is performed according to the severity of psoriasis (PASI), and also the body weight of mice. Starting on day 7 and until day 13, 100 mg of test formulations […] and 65 mg of vehicle (groups 1 and […]) are topically administered once daily for 7 consecutive days onto the shaved back skin of mice. Several measurements are taken during treatment period from day 7 to day 14: psoriasis index (PASI), body weight, use of enrichment and mortality. At the end of treatment period, TEWL is assessed, and blood and skin samples are collected. Histological analysis of skin samples is used for microscopic scoring of psoriasis and the determination of the thickness of parakeratosis and epidermis and blood analysis is used for assessing the level of proinflammatory biomarkers (cytokines assays). The effect of treatment of psoriasis induced mice with BETi formulations at the four dose levels are compared with Dermoval® cream containing 0.05% clobetasol propionate (reference) and vehicle (positive control) and also with healthy mice treated with vehicle (negative control).
PASI scoring takes into account the following 3 parameters: the presence of erythema on the skin, induration of the skin (thickening) and peeling of the skin at the area of the induction of psoriasis.
The presence of erythema on the skin at the area of induction of psoriasis with the following scoring grid: • 0=no or no more erythema on the skin, • 1=weak erythema on the skin, • 2=moderate erythema on the skin, • 3=important erythema on the skin.
The presence of induration of the skin at the area of induction of psoriasis with the following scoring grid: • 0=no or no more induration of the skin, • 1=weak induration of the skin, • 2=moderate induration of the skin, • 3=important induration of the skin.
The presence of peeling of the skin at the area of induction of psoriasis with the following scoring grid: • 0=no or no more dryness/peeling of the skin, • 1=weak dryness/peeling of the skin, • 2=moderate dryness/peeling of the skin, • 3=important dryness/peeling of the skin.
The sum of the mean scores of these 3 parameters result in the mean PASI score.
One of the issues with a steroid is that it causes skin thinning and continues to have an effect on no longer inflamed skin and the model set up and measurements above are not designed to reflect this negative effect. Therefore, a modified PASI (mPASI) is calculated in the same the manner as mean PASI score but excludes the scoring for induration (thickening of the skin).
Mice are weighed three times during the week of D1 to D7, and then daily during the week of D7 to D13, as well as on the day D14 when they are sacrificed. It should be noted that a characteristic body weight loss of mice is observed after the start of the induction of psoriasis, mainly during the first days following it. The body weight loss can reach between 10 to 15%.
For the duration of the experiment, dental rolls are used as enrichment and placed in each cage and replaced twice. Between D1 and D7, the number of dental rolls used by animals are determined twice in the morning, and are determined daily during D7 to D14, at the time of PASI or the tolerance assessment. The use of dental rolls is scored from 0=no use of dental rolls to 4=use of the 4 dental rolls. In the case where only half of a dental roll is used, a score of 0.5 is assigned. […]

Cn1cc(-c2cccc(O)c2Oc2ccccc2)c2cc[nH]c2c1=O [BETi1]
Modified PASI Mean score values (D 2, listed as BETI1 0.1%): 0.50
PASI Mean score values (D 2, listed as BETI1 0.1%): 0.50
Modified PASI Mean score values (D 2, listed as BETI1 1.0%): 1.00
PASI Mean score values (D 2, listed as BETI1 1.0%): 1.00
Mean score use enrichment (D 2, listed as BETi 0.001%): 0.25
Mean score use enrichment (D 2, listed as BETi 0.01%): 0.50
Mean score use enrichment (D 2, listed as BETi 0.1%): 0.75
Modified PASI Mean score values (D 2, listed as BETi1 0.001%): 1.00
PASI Mean score values (D 2, listed as BETi1 0.001%): 1.25
Modified PASI Mean score values (D 2, listed as BETi1 0.01%): 0.25
PASI Mean score values (D 2, listed as BETi1 0.01%): 0.25
Mean score use enrichment (D 2, listed as BETi 1.0%): 0.75
Modified PASI Mean score values (D 3, listed as BETI1 0.1%): 1.25
PASI Mean score values (D 3, listed as BETI1 0.1%): 1.25
Modified PASI Mean score values (D 3, listed as BETI1 1.0%): 1.25
PASI Mean score values (D 3, listed as BETI1 1.0%): 1.25
Mean score use enrichment (D 3, listed as BETi 0.001%): 0.75
Mean score use enrichment (D 3, listed as BETi 0.01%): 0.50
Mean score use enrichment (D 3, listed as BETi 0.1%): 1.25
Modified PASI Mean score values (D 3, listed as BETi1 0.001%): 1.00
PASI Mean score values (D 3, listed as BETi1 0.001%): 1.00
Modified PASI Mean score values (D 3, listed as BETi1 0.01%): 1.25
PASI Mean score values (D 3, listed as BETi1 0.01%): 1.25
Mean score use enrichment (D 3, listed as BETi 1.0%): 1.00
Modified PASI Mean score values (D 4): 2.75
PASI Mean score values (D 4, listed as BETI1 0.1%): 3.00
PASI Mean score values (D 4, listed as BETI1 1.0%): 3.25
Mean score use enrichment (D 4, listed as BETi 0.001%): 1.00
Mean score use enrichment (D 4, listed as BETi 0.01%): 0.75
Mean score use enrichment (D 4, listed as BETi 0.1%): 1.25
PASI Mean score values (D 4, listed as BETi1 0.001%): 3.25
PASI Mean score values (D 4, listed as BETi1 0.01%): 3.25
Mean score use enrichment (D 4, listed as BETi 1.0%): 1.00
Modified PASI Mean score values (D 5, listed as BETI1 0.1%): 4.50
PASI Mean score values (D 5, listed as BETI1 0.1%): 5.75
Modified PASI Mean score values (D 5, listed as BETI1 1.0%): 4.00
PASI Mean score values (D 5, listed as BETI1 1.0%): 5.50
Mean score use enrichment (D 5, listed as BETi 0.001%): 1.25
Mean score use enrichment (D 5, listed as BETi 0.01%): 0.75
Mean score use enrichment (D 5, listed as BETi 0.1%): 0.50
Modified PASI Mean score values (D 5, listed as BETi1 0.001%): 4.00
PASI Mean score values (D 5, listed as BETi1 0.001%): 5.00
Modified PASI Mean score values (D 5, listed as BETi1 0.01%): 4.00
PASI Mean score values (D 5, listed as BETi1 0.01%): 5.25
Mean score use enrichment (D 5, listed as BETi 1.0%): 1.50
Modified PASI Mean score values (D 6, listed as BETI1 0.1%): 4.50
PASI Mean score values (D 6, listed as BETI1 0.1%): 7.00
Modified PASI Mean score values (D 6, listed as BETI1 1.0%): 4.75
PASI Mean score values (D 6, listed as BETI1 1.0%): 7.25
Mean score use enrichment (D 6, listed as BETi 0.001%): 1.25
Mean score use enrichment (D 6, listed as BETi 0.01%): 1.25
Mean score use enrichment (D 6, listed as BETi 0.1%): 0.75
Modified PASI Mean score values (D 6, listed as BETi1 0.001%): 4.75
PASI Mean score values (D 6, listed as BETi1 0.001%): 7.25
Modified PASI Mean score values (D 6, listed as BETi1 0.01%): 4.75
PASI Mean score values (D 6, listed as BETi1 0.01%): 7.00
Mean score use enrichment (D 6, listed as BETi 1.0%): 1.50
